From paper PMC7311426, “An amphipathic peptide with antibiotic activity against multidrug-resistant Gram-negative bacteria” (Nature Communications, 2020)
In brackets after ≈: the same amount, converted by molar mass. Read-outs that look alike come from different tables or passages of the source. Residues, ends and D or L forms follow the SMILES beside them.

Columns and labels:
S. aureus = assay: microbe, parasite or virus in culture; details: Staphylococcus aureus, mode of 6 replicates
Method in brief: (§1)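 MICs were scored by eye after 18-20 h static incubation at 37 °C, with bacteria at 5 × 10^5 CFU mL^−1 in MHB. Peptides were serially diluted 2-fold over 12 points, top 128 or 64 μg mL^−1. CAMHB (CLSI) and 1% agarose-MHB variants were also run, at least six replicates.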

S. enterica Typhi = assay: microbe, parasite or virus in culture; details: for MIC: Salmonella enterica, ATCC14028 / TYPHI, read-out: BMD MIC
Method in brief: as §1

L. monocytogenes = assay: microbe, parasite or virus in culture
Method in brief: as §1

B. subtilis = assay: microbe, parasite or virus in culture; details: Bacillus subtilis
Method in brief: as §1

[1] = tested on: human erythrocytes (HRBC); type: cell-based
[2] = tested on: HEK-293 human embryonic kidney cells; assay: in vitro
[3] = tested on: HepG2 liver hepatocellular carcinoma cells; assay: in vitro
in vitro = details: human
[4] = tested on: HK-2 human kidney proximal tubule cells; assay: in vitro
E. coli [5] = assay: microbe, parasite or virus in culture; details: for MIC: Escherichia coli
Method in brief: as §1

C. neoformans = assay: microbe, parasite or virus in culture
P. aeruginosa = assay: microbe, parasite or virus in culture; details: for MIC: Pseudomonas aeruginosa, mode of 6 replicates
Method in brief: as §1

A. baumannii = assay: microbe, parasite or virus in culture; details: for MIC: Acinetobacter baumannii, mode of 6 replicates
Method in brief: as §1

C. albicans = assay: microbe, parasite or virus in culture
K. pneumoniae = assay: microbe, parasite or virus in culture; details: for MIC: Klebsiella pneumoniae, mode of 6 replicates
Method in brief: as §1

E. coli ATCC 25922 = assay: microbe, parasite or virus in culture; type: cell-based, Escherichia coli; details: ATCC 25922
Method in brief: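 Broth microdilution MIC in Mueller Hinton broth, 12-point 2-fold series from 128 or 64 down to 0.06 or 0.03 μg mL^−1, 5 × 10^5 CFU mL^−1 inoculum. Read visually after 18-20 h at 37 °C without shaking; n ≥ 6. Additional tests in CAMHB, and in MHB with 1% agarose.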

E. coli [6] = tested on: E. coli; parameters: method as in Hasman H, et al. Euro. Surveill. (2015) 20:49; details: E. coli ESBL20150072, mcr-1 pos; ESBL; CAMHB; comparator antibiotics; ref Hasman H, et al. Euro. Surveill. (2015) 20:49; cited from earlier work
[7] = tested on: A. baumannii clinical isolates; assay: microbe, parasite or virus in culture
Procedure: (§2) The in vitro activity of AA139 and comparator antimicrobials was determined in two panels of clinical isolates of E. coli, K. pneumoniae, P. aeruginosa, and A. baumannii (Supplementary Table 3), and MIC90 presented. The US panel consisted of 331 clinical isolates from 2010 to 2012. It was tested by BMD in accordance with the CLSI guidelines (M07-A9, 2012)[39]. […] AA139 was diluted in 0.01% acetic acid/0.1% bovine serum albumin. Sterile polypropylene culture cluster round-bottom 96-well plates (Costar # 3879) were used for testing. The worldwide panel consisted of 445 clinical isolates from 2011 to 2013, geographically divided into Asia, Europe, North America, and Rest of World (Middle East, Latin America, Africa, and South Pacific) with each region representing ~25% of the isolates. It was tested by broth microdilution in accordance with the CLSI guidelines (M07-A9, 2012)[39]. […] The test media was CAMHB (Becton Dickinson). AA139 and polymyxin B were tested in media supplemented with 0.002% Tween 80 (Calbiochem). MIC90 values were calculated for all or subsets of the isolates. MIC correlation between AA139 and colistin was analyzed with data from the US panel.

[8] = tested on: E. coli clinical isolates; assay: microbe, parasite or virus in culture
Procedure: as §2

[9] = tested on: K. pneumoniae clinical isolates; assay: microbe, parasite or virus in culture
Procedure: as §2

[10] = tested on: P. aeruginosa clinical isolates; assay: microbe, parasite or virus in culture
Procedure: as §2

[11] = ATCC25922, read-out: BMD MIC, E. coli ATCC 25922 FDA control strain, CAMHB, mode of 6 replicates
[12] = ATCC700926 / MG1655, read-out: BMD MIC
[13] = ATCC700928, read-out: BMD MIC, E. coli ATCC 700928 CFT073 UPEC, CAMHB, mode of 6 replicates
[14] = ATCC27853, read-out: BMD MIC, P. aeruginosa ATCC 27853 control strain, CAMHB
[15] = read-out: BMD MIC, P. aeruginosa FADDI-070, MDR, PmxR, MHB/CAMHB
[16] = ATCC19636, read-out: BMD MIC, A. baumannii ATCC 19636 type strain, CAMHB
[17] = read-out: BMD MIC, A. baumannii Greece CI, XDR, PmxR, MHB
[18] = ATCC13883, read-out: BMD MIC, K. pneumoniae ATCC 13883 type strain (polymyxin/colistin heteroresistant), MHB
[19] = ATCC700603, read-out: BMD MIC, K. pneumoniae ATCC 700603 (K6), MDR, OXA-2/SHV-18, CAMHB
[20] = BAA2146, read-out: BMD MIC, K. pneumoniae BAA-2146, MDR, ESBL, NDM-1 pos, MHB
[21] = read-out: BMD MIC, K. pneumoniae Greece CI 8_GR_13, XDR, KPC-2, PmxR, MHB
[22] = Worldwide isolates 2011-2013, A. baumannii n = 108
[23] = Worldwide isolates 2011-2013, E. coli n = 112
[24] = Worldwide isolates 2011-2013, K. pneumoniae n = 114
[25] = Worldwide isolates 2011-2013, P. aeruginosa n = 111

## CN[C@H](CC(C)C)C(=O)N[C@H]1C(=O)N[C@@H](CC(N)=O)C(=O)N[C@H]2C(=O)N[C@H]3C(=O)N[C@H](C(=O)N[C@H](C(=O)O)c4cc(O)cc(O)c4-c4cc3ccc4O)[C@H](O)c3ccc(c(Cl)c3)Oc3cc2cc(c3O[C@@H]2O[C@H](CO)[C@@H](O)[C@H](O)[C@H]2O[C@H]2C[C@](C)(N)[C@H](O)[C@H](C)O2)Oc2ccc(cc2Cl)[C@H]1O [Vancomycin, reference compound]
S. aureus; ATCC25923|MSSA, read-out: BMD MIC, S. aureus ATCC 25923 MSSA, CAMHB
  MIC: 2 µg/mL (≈ 1.38 µM)
S. aureus; ATCC25923|MSSA, read-out: BMD MIC, S. aureus ATCC 25923 MSSA, MHB
  MIC: 1 µg/mL (≈ 0.69 µM)
S. aureus; ATCC43300|MRSA, read-out: BMD MIC, S. aureus ATCC 43300 MRSA, MHB
  MIC: 1 µg/mL (≈ 0.69 µM)
S. enterica Typhi
  MIC: > 64 µg/mL
L. monocytogenes; Listeria monocytogenes, ATCC19112, read-out: BMD MIC
  MIC: 4 µg/mL (≈ 2.76 µM)
B. subtilis; ATCC6051 / NRS744, read-out: BMD MIC
  MIC: 0.25 µg/mL (≈ 0.173 µM)
B. subtilis; ATCC6633 / NRS231, read-out: BMD MIC
  MIC: 0.25 µg/mL (≈ 0.173 µM)

## CC(C)[C@@H]1NC(=O)CNC(=O)[C@H](CC(N)=O)NC(=O)[C@H](CCCNC(=N)N)NC(=O)[C@H](CCCNC(=N)N)NC(=O)[C@H](C(C)C)NC(=O)[C@@H]2CSSC[C@H](NC(=O)[C@H](C(C)C)NC(=O)[C@H](CCCNC(=N)N)NC1=O)C(=O)N[C@@H](Cc1c[nH]cn1)C(=O)N[C@@H](CCCNC(=N)N)C(=O)N[C@@H](CCCNC(=N)N)C(=O)N[C@H](C(=O)N[C@@H](CC(N)=O)C(=O)O)CSSC[C@H](NC(=O)[C@H](Cc1ccccc1)NC(=O)CN)C(=O)N[C@@H](Cc1c[nH]c3ccccc13)C(=O)N[C@@H](CC(N)=O)C(=O)N[C@@H](C(C)C)C(=O)N2 [NZ17143] (HELM PEPTIDE1{G.F.C.W.N.V.C.V.R.R.N.G.V.R.V.C.H.R.R.C.N}$PEPTIDE1,PEPTIDE1,3:R3-20:R3|PEPTIDE1,PEPTIDE1,7:R3-16:R3$$$V2.0)
[1]
  Heamolysis HC10, Mean: >300 µg/mL
[1]; red cells of human, 3 h
  Heamolysis HC10: >300 µg/mL
[2]
  CC50 HEK293: >300 µg/mL
  CC50 HEK293, Mean: >300 µg/mL
[3]
  CC50 HepG2: >300 µg/mL
  CC50 HepG2, Mean: >300 µg/mL
In vitro; HEK-293 cells
  CC50 at 24 h: > 300 µg/mL
In vitro; HK-2 cells
  CC50 at 24 h: > 250 µg/mL
In vitro; HepG2 cells
  CC50 at 24 h: > 300 µg/mL
[4]
  CC50 HK2: >253 µg/mL
  CC50 HK2, Mean: >250 µg/mL
S. enterica Typhi; Typhi
  BMD MIC: 0.5 µg/mL
E. coli [5]
  MIC against ESBL producing E. coli DSA 443: 0.5 µg/mL (≈ 0.198 µM)
L. monocytogenes
  BMD MIC: 8 µg/mL
C. neoformans
  BMD MIC: 4 µg/mL
P. aeruginosa
  BMD MIC: 1 µg/mL
A. baumannii
  BMD MIC: 2 µg/mL
C. albicans
  BMD MIC: >32 µg/mL
C. albicans; 24 h
  BMD MIC: 32 µg/mL
K. pneumoniae
  BMD MIC: 1 µg/mL
E. coli ATCC 25922
  MIC, MHB: 0.25 µg/mL (≈ 0.0988 µM)

## CC(C)(O/N=C(\C(=O)N[C@@H]1C(=O)N2C(C(=O)[O-])=C(C[n+]3ccccc3)CS[C@H]12)c1csc(N)n1)C(=O)O [Ceftazidime, ceftazidime, reference compound]
E. coli [6]
  BMD MIC: >16 µg/mL
S. enterica Typhi
  MIC: ≤ 0.5 µg/mL
E. coli [5]; [11]
  MIC: 1 µg/mL (≈ 1.83 µM)
E. coli [5]; [12]
  MIC: ≤ 0.5 µg/mL
E. coli [5]; [13]
  MIC: ≤ 0.25 µg/mL
E. coli [5]; read-out: BMD MIC
  MIC: 16 µg/mL (≈ 29.3 µM)
P. aeruginosa; [14]
  MIC: 8 µg/mL (≈ 14.6 µM)
P. aeruginosa; [15]
  MIC: > 64 µg/mL
A. baumannii; [16]
  MIC: 16 µg/mL (≈ 29.3 µM)
A. baumannii; [17]
  MIC: > 64 µg/mL
K. pneumoniae; [18]
  MIC: 1 µg/mL (≈ 1.83 µM)
K. pneumoniae; [19]
  MIC: > 64 µg/mL
K. pneumoniae; [20]
  MIC: > 64 µg/mL
K. pneumoniae; [21]
  MIC: > 64 µg/mL
[7]; Acinetobacter baumannii
  MIC90: > 32 µg/mL
[7]; US isolates 2010–2012, A. baumannii MDR, n = 19
  MIC90: >32 µg/mL
[7]; US isolates 2010–2012, A. baumannii XDR, n = 31
  MIC90: >32 µg/mL
[7]; [22]
  MIC50: > 32 µg/mL
  MIC90: > 32 µg/mL
[8]; Escherichia coli
  MIC90: 32 µg/mL (≈ 58.5 µM)
[8]; Escherichia coli, US isolates 2010–2012, E. coli MDR, n = 31
  MIC90: > 32 µg/mL
[8]; Escherichia coli, US isolates 2010–2012, E. coli Non-MDR, n = 24
  MIC90: 2 µg/mL (≈ 3.66 µM)
[8]; [23]
  MIC50: 0.25 µg/mL (≈ 0.457 µM)
  MIC90: 32 µg/mL (≈ 58.5 µM)
[9]; Klebsiella pneumoniae, US isolates 2010–2012, K. pneumoniae Non-MDR, n = 24
  MIC90: 1 µg/mL (≈ 1.83 µM)
[9]; Klebsiella pneumoniae, US isolates 2010–2012, K. pneumoniae XDR, n = 55
  MIC90: > 32 µg/mL
[9]; [24]
  MIC50: 1 µg/mL (≈ 1.83 µM)
  MIC90: > 32 µg/mL
[10]; Pseudomonas aeruginosa, US isolates 2010–2012, P. aeruginosa Non-MDR, n = 41
  MIC90: 32 µg/mL (≈ 58.5 µM)
[10]; Pseudomonas aeruginosa, US isolates 2010–2012, P. aeruginosa XDR, n = 37
  MIC90: > 32 µg/mL
[10]; [25]
  MIC50: 4 µg/mL (≈ 7.32 µM)
  MIC90: > 32 µg/mL

## CO/N=C(\C(=O)N[C@@H]1C(=O)N2C(C(=O)[O-])=C(C[N+]3(C)CCCC3)CS[C@H]12)c1csc(N)n1 [Cefepime, reference compound]
E. coli [6]
  BMD MIC: >2 µg/mL
S. enterica Typhi
  MIC: ≤ 0.5 µg/mL
E. coli [5]; [11]
  MIC: ≤ 0.5 µg/mL
E. coli [5]; [12]
  MIC: ≤ 0.5 µg/mL
E. coli [5]; [13]
  MIC: ≤ 0.5 µg/mL
E. coli [5]; read-out: BMD MIC
  MIC: 8 µg/mL (≈ 16.6 µM)
P. aeruginosa; [14]
  MIC: ≤ 0.5 µg/mL
P. aeruginosa; [15]
  MIC: > 64 µg/mL
A. baumannii; [16]
  MIC: 8 µg/mL (≈ 16.6 µM)
A. baumannii; [17]
  MIC: > 64 µg/mL
K. pneumoniae; [18]
  MIC: 1 µg/mL (≈ 2.08 µM)
K. pneumoniae; [19]
  MIC: 0.5 µg/mL (≈ 1.04 µM)
K. pneumoniae; [20]
  MIC: > 64 µg/mL
K. pneumoniae; [21]
  MIC: > 64 µg/mL
